Measured values from patent publication US8309552B2, “Immunomodulating heterocyclic compounds” (Medigene AG, priority 2003, dated 2012).
pEC50: −log10 of the molar value.

Target: T1, CD80-CD28 interaction (Homo sapiens, UniProt P33681)
T1 sequence (P33681 35-242 limits assumed): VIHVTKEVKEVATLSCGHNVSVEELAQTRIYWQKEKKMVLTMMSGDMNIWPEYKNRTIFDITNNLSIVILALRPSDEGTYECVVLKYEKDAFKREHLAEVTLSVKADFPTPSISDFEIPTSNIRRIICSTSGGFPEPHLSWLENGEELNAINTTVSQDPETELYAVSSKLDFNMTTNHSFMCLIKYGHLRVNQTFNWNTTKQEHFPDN
Test: Homogenous Time Resolved Fluorescence (HTRF) assay, cell free
Type: binding
Conditions: cell-free HTRF, concentration series 100 μM-1.7 nM, 4 hours at room temperature; read-out: Activity (EC50 in the HTRF assay)
Procedure, shortened: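 Europium and APC labels were linked through antibodies to CD28 and CD80 fusion proteins. Compounds were tested at 100 μM-1.7 nM for 4 h at room temperature in 50 mM Tris-HCl, 150 mM NaCl pH7.8, 0.1% BSA. Emission read at 665 and 615 nm (excitation 340 nm); non-specific signal measured with C215 Fab in place of CD80; EC50 reported in bands.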

For `O=C(NCCCN1CCCCCC1)c1ccc(-n2[nH]c3c(nnc4c(F)cccc43)c2=O)cc1` [Example 451], the pEC50 was > 6.00.

`CCCN(CC)C(=O)c1ccc(-n2[nH]c3c(nnc4c(F)cccc43)c2=O)cc1` [Example 452] was tested, and the pEC50 was 5.00 to 6.00.

`CC1CCCCN1CCCCNC(=O)c1ccc(-n2[nH]c3c(nnc4c(F)cccc43)c2=O)cc1` (stereo not drawn) [Example 454] was tested, and the pEC50 was > 6.00.

In the case of `CC(C)(C)CNC(=O)c1ccc(-n2[nH]c3c(nnc4c(F)cccc43)c2=O)cc1` [Example 455], the pEC50 was > 6.00.

With `O=C(NC1CCN(CC2CCCCC2)CC1)c1ccc(-n2[nH]c3c(nnc4c(F)cccc43)c2=O)cc1` [Example 456] the pEC50 was > 6.00.

In the case of `O=C(NC1CCN(CCCCc2ccccc2)CC1)c1ccc(-n2[nH]c3c(nnc4c(F)cccc43)c2=O)cc1` [Example 457], the pEC50 was > 6.00.

`C=CCN(CC=C)CCCCNC(=O)c1ccc(-n2[nH]c3c(nnc4c(F)cccc43)c2=O)cc1` [Example 459] was tested, and the pEC50 was > 6.00.

In the case of `CC1CN(CCCCNC(=O)c2ccc(-n3[nH]c4c(nnc5c(F)cccc54)c3=O)cc2)CC(C)O1` (stereo not drawn) [Example 460], the pEC50 was > 6.00.

In the case of `CC1CN(C(=O)c2ccc(-n3[nH]c4c(nnc5c(F)cccc54)c3=O)cc2)CC(C)O1` (stereo not drawn) [Example 461], the pEC50 was > 6.00.

`O=C(NCCCCN1CCCCCC1)c1ccc(-n2[nH]c3c(nnc4c(F)cccc43)c2=O)cc1` [Example 462] was tested, and the pEC50 was > 6.00.

`O=C(c1ccc(-n2[nH]c3c(nnc4c(F)cccc43)c2=O)cc1)N1CCCCCC1` [Example 463] was tested, and the pEC50 was > 6.00.

`CC1CCN(CCCCNC(=O)c2ccc(-n3[nH]c4c(nnc5c(F)cccc54)c3=O)cc2)CC1` [Example 464] was tested, and the pEC50 was > 6.00.

`CC1CCN(C(=O)c2ccc(-n3[nH]c4c(nnc5c(F)cccc54)c3=O)cc2)CC1` [Example 465] was tested, and the pEC50 was > 6.00.

For `CC1(C)CCCC(C)(C)N1CCCCNC(=O)c1ccc(-n2[nH]c3c(nnc4c(F)cccc43)c2=O)cc1` [Example 466], the pEC50 was > 6.00.

In the case of `O=C(NCC(F)(F)C(F)F)c1ccc(-n2[nH]c3c(nnc4c(F)cccc43)c2=O)cc1` [Example 467], the pEC50 was > 6.00.

With `CCCN(CCCCNC(=O)c1ccc(-n2[nH]c3c(nnc4c(F)cccc43)c2=O)cc1)CC1CC1` [Example 468] the pEC50 was > 6.00.

`C=CCN(CCCCNC(=O)c1ccc(-n2[nH]c3c(nnc4c(F)cccc43)c2=O)cc1)C1CCCC1` [Example 469] was tested, and the pEC50 was > 6.00.

For `O=C(NCCCCN1CCC(C(F)(F)F)CC1)c1ccc(-n2[nH]c3c(nnc4c(F)cccc43)c2=O)cc1` [Example 470], the pEC50 was > 6.00.

`O=C(NC1CCN(CCCCF)CC1)c1ccc(-n2[nH]c3c(nnc4c(F)cccc43)c2=O)cc1` [Example 471] was tested, and the pEC50 was > 6.00.

Compound `C=CCN(CC=C)C(=O)c1ccc(-n2[nH]c3c(nnc4c(F)cccc43)c2=O)cc1` [Example 474] has a pEC50 of 5.00 to 6.00.

With `CC(C)CN(CCCCNC(=O)c1ccc(-n2[nH]c3c(nnc4c(F)cccc43)c2=O)cc1)CC(C)C` [Example 476] the pEC50 was > 6.00.

For `CC1CC(C)CN(CCCCNC(=O)c2ccc(-n3[nH]c4c(nnc5c(F)cccc54)c3=O)cc2)C1` (stereo not drawn) [Example 477], the pEC50 was > 6.00.

`CC(C)(C)NCCCCNC(=O)c1ccc(-n2[nH]c3c(nnc4c(F)cccc43)c2=O)cc1` [Example 479] was tested, and the pEC50 was > 6.00.

In the case of `CCC(C)(C)NCCCCNC(=O)c1ccc(-n2[nH]c3c(nnc4c(F)cccc43)c2=O)cc1` [Example 480], the pEC50 was > 6.00.

For `CC(C)(C)CNCCCCNC(=O)c1ccc(-n2[nH]c3c(nnc4c(F)cccc43)c2=O)cc1` [Example 481], the pEC50 was > 6.00.

For `C=CCCN1CCC(NC(=O)c2ccc(-n3[nH]c4c(nnc5c(F)cccc54)c3=O)cc2)CC1` [Example 483], the pEC50 was > 6.00.

For `O=C(NC1CCN(CCC(F)=C(F)F)CC1)c1ccc(-n2[nH]c3c(nnc4c(F)cccc43)c2=O)cc1` [Example 484], the pEC50 was > 6.00.

With `O=C(NCCCC(F)F)c1ccc(-n2[nH]c3c(nnc4c(F)cccc43)c2=O)cc1` [Example 485] the pEC50 was > 6.00.

In the case of `N#CCCNC(=O)c1ccc(-n2[nH]c3c(nnc4c(F)cccc43)c2=O)cc1` [Example 486], the pEC50 was > 6.00.

In the case of `O=C(NC(CO)(CO)CO)c1ccc(-n2[nH]c3c(nnc4c(F)cccc43)c2=O)cc1` [Example 487], the pEC50 was > 6.00.
